From US8546440B2, “Substituted bicyclic imidazole derivatives as gamma secretase modulators” (Janssen Pharmaceuticals, Inc., priority 2008, dated 2013)
pIC50: −log10 of the molar value.

Key:
Assay type in all cases: cell-based
Aβ42 [1] = assay: Screening for γ-secretase-modulating activity, Method 2: Aβ42 Alphalisa in supernatant of SKNBE2 cells carrying APP 695 wild type (Table 12c); conditions: Method 2, Table 12c, incubated overnight
Method in brief: (§1)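 SKNBE2 cells expressing wild-type APP695, 10^4 cells/well, exposed to compound overnight at 37 °C; secreted Aβ42 and Aβtotal in supernatant measured by AlphaLISA sandwich immunoassays (Aβ42: C-terminal/N-terminal antibodies; Aβtotal: N-terminal/4G8). IC50 from 4-parameter fit of % untreated control.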

Aβtotal [2] = assay: Screening for γ-secretase-modulating activity, Method 1: Aβtotal sandwich ELISA in supernatant of SKNBE2 cells carrying APP 695 wild type (Tables 12a, 12b)
Method in brief: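 Aβtotal in conditioned medium was measured by 6E10/biotin-4G8 sandwich ELISA with fluorogenic peroxidase read-out. Cells were wild-type APP 695 SKNBE2, treated 18 hours in glutamine-supplemented Ultraculture. IC50 came from 4-parameter fits of inhibition, or percent of control, against concentration; toxicity was checked by WST-1.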

Aβ42 [3] = assay: Screening for γ-secretase-modulating activity, Method 1: Aβ42 sandwich ELISA in supernatant of SKNBE2 cells carrying APP 695 wild type (Tables 12a, 12b)
Method in brief: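 Aβ42 levels in the supernatant were measured by ELISA with 450 nm colorimetric read-out after 18 h compound exposure of wild-type APP695 SKNBE2 cells plated one day earlier. IC50 was fitted with a 4-parameter model, either with fixed top/bottom and a Hill slope of 1, or as averaged values from % of vehicle control; WST-1 was used to flag cytotoxicity.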

Aβtotal [4] = assay: Screening for γ-secretase-modulating activity, Method 2: Aβtotal Alphalisa in supernatant of SKNBE2 cells carrying APP 695 wild type (Table 12c); conditions: Method 2, Table 12c, incubated overnight
Method in brief: as §1

[5] = Homo sapiens, Method 1, Table 12a, SKNBE2 cells carrying APP 695 wild type, compounds 18 hours, ELISA, curve top and bottom fixed to 100 and 0, hill slope 1
[6] = Homo sapiens, Table 12b, Method 1, SKNBE2 cells carrying APP 695 wild type, cell supernatant ELISA, averaged IC50 values
[7] = Homo sapiens, Table 12b, Method 1, SKNBE2 cells carrying APP 695 wild type, cell supernatant ELISA, averaged IC50 values, percentage of control vs log concentration

| Structure (SMILES) | pIC50 (Aβ42 [1]; Homo sapiens) | pIC50 (Aβtotal [2]; [5]) | pIC50 (Aβtotal [2]; [6]) | pIC50 (Aβ42 [3]; [5]) | pIC50 (Aβ42 [3]; [7]) | pIC50 (Aβtotal [4]; Homo sapiens) | pIC50 (Aβ42 [1]) | pIC50 (Aβtotal [2]; Table 12b, Method 1, SKNBE2 cells carrying APP 695 wild type, cell supernatant ELISA, averaged IC50 values) | pIC50 (Aβ42 [3]; Table 12b, Method 1, SKNBE2 cells carrying APP 695 wild type, cell supernatant ELISA, averaged IC50 values, percentage of control vs log concentration) | pIC50 (Aβtotal [4]) |
| --- | --- | --- | --- | --- | --- | --- | --- | --- | --- | --- |
| COc1cc(Nc2cccn3cc(C)nc23)ccc1-n1cnc(C)c1 [Compound 50] | 6.51 | < 5.52 | < 5.30 | 6.60 | 6.60 | < 5.00 |  |  |  |  |
| COc1cc(Nc2cccn3c(C)c(-c4ccccc4Cl)nc23)ccc1-n1cnc(C)c1 [Compound 15] | 7.42 | < 5.52 | < 5.52 | 7.92 | 7.96 | 5.26 |  |  |  |  |
| COc1cc(Nc2cccn3c(C)c(-c4c(F)cccc4F)nc23)ccc1-n1cnc(C)c1 [Compound 27] |  | < 5.52 | < 5.52 | 7.60 | 7.60 |  |  |  |  |  |
| COc1nc(Nc2cccn3c(C)c(-c4ccccc4C(F)(F)F)nc23)ccc1-n1cnc(C)c1 [Compound 138] |  |  |  |  |  |  | 8.30 | < 5.52 | 8.05 | 5.23 |
| COc1cc(Nc2cccn3cc(C4CCOCC4)nc23)ccc1-n1cnc(C)c1 [Compound 4] | 6.78 | < 5.52 | < 5.52 | 7.28 | 7.07 | < 5.00 |  |  |  |  |
| Cc1ncn(-c2ccc(Nc3cccn4cc(-c5ccccc5C)nc34)cc2)n1 [Compound 71] | 6.39 | < 5.52 |  | 6.54 |  | < 5.52 |  |  |  |  |
| COc1cc(Nc2cccn3cc(-c4ccc(F)cc4)nc23)ccc1-n1cnc(C)c1 [Compound 1] | 6.81 | < 5.30 | < 5.30 | 7.00 | 7.01 | 5.13 |  |  |  |  |

Next, values leading:

| pIC50 (Aβ42 [1]; Homo sapiens) | pIC50 (Aβtotal [2]; [5]) | pIC50 (Aβtotal [2]; [6]) | pIC50 (Aβ42 [3]; [5]) | pIC50 (Aβ42 [3]; [7]) | pIC50 (Aβtotal [4]; Homo sapiens) | pIC50 (Aβ42 [1]) | pIC50 (Aβtotal [2]; Table 12b, Method 1, SKNBE2 cells carrying APP 695 wild type, cell supernatant ELISA, averaged IC50 values) | pIC50 (Aβ42 [3]; Table 12b, Method 1, SKNBE2 cells carrying APP 695 wild type, cell supernatant ELISA, averaged IC50 values, percentage of control vs log concentration) | pIC50 (Aβtotal [4]) | Structure (SMILES) |
| --- | --- | --- | --- | --- | --- | --- | --- | --- | --- | --- |
| 7.15 | < 5.52 | < 5.52 | 7.51 | 7.57 | 5.24 |  |  |  |  | COc1cccc(-c2cn3cccc(Nc4ccc(-n5cnc(C)c5)c(OC)c4)c3n2)c1 [Compound 33] |
|  | < 5.52 | < 5.52 | 7.19 | 7.26 |  |  |  |  |  | COc1cc(Nc2cccn3c(Cl)c(-c4ccc(F)cc4)nc23)ccc1-n1cnc(C)c1 [Compound 2] |
| 7.89 | < 6.00 | < 5.00 | 8.00 | 8.10 | 5.15 |  |  |  |  | COc1cc(Nc2cccn3c(C)c(-c4ccccc4C(F)(F)F)nc23)ccc1-n1cnc(C)c1 [Compound 29] |
|  | < 6.00 | < 5.52 | 7.85 | 7.92 |  |  |  |  |  | COc1cc(Nc2cccn3c(C)c(-c4ccccc4)nc23)ccc1-n1cnc(C)c1 [Compound 5] |
